From paper PMC9266368, “Synthesis and Biological Evaluation of Small Molecules as Potential Anticancer Multitarget Agents” (International Journal of Molecular Sciences, 2022)

Key:
[1] = molecular target: T1, membrane VEGFR-2 (mVEGFR-2) (Homo sapiens, UniProt P35968); test: Membrane VEGFR-2 relative quantification by flow cytometry; assay type: cell-based; conditions: 24 h, 100 or 10 μM (Table 7), sorafenib 10 μM, percentage referred to DMSO control
T1 construct: endogenous in cells; host or cells: HT-29, A-549, MCF-7
T1 sequence (P35968 20-1356): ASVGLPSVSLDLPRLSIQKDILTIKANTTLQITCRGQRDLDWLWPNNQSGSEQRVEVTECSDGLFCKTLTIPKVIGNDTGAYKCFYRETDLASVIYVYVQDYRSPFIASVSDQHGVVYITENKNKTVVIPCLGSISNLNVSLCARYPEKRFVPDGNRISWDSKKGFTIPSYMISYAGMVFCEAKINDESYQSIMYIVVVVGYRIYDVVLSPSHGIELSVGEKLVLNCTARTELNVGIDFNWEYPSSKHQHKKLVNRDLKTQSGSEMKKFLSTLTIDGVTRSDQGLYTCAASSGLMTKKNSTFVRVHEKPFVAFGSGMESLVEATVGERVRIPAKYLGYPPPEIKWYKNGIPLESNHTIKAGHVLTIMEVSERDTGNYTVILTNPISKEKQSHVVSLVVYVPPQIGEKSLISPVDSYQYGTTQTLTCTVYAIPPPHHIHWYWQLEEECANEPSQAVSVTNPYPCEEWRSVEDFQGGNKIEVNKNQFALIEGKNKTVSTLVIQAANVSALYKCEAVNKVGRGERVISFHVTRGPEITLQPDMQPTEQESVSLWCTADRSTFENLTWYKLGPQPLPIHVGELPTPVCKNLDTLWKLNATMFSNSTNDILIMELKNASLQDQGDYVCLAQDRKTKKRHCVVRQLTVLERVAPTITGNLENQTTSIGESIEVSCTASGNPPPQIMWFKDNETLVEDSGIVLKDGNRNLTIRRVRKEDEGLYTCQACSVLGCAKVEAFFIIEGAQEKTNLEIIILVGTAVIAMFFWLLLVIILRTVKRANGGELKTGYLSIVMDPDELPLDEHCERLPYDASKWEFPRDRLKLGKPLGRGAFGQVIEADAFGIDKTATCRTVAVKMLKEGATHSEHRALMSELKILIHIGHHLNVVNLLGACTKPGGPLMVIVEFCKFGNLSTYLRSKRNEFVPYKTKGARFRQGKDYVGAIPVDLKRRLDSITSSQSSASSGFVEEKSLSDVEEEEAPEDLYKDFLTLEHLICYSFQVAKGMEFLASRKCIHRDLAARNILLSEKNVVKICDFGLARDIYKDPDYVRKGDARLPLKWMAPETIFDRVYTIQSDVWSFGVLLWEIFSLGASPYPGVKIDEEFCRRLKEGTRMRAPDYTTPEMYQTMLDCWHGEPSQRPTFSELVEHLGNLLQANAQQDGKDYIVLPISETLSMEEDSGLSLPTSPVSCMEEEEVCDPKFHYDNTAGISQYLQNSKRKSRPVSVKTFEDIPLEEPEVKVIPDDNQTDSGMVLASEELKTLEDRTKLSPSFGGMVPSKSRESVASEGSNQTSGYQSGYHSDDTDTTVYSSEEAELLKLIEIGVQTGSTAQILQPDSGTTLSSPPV
Description: The presence of both targets in the membrane was relatively determined by using DMSO-treated cells as a negative control.
(§1) For the assay, 10^5 cells per well were incubated for 24 h with the corresponding dose of the tested compound in a total volume of 500 μL of their growth media.

[2] = system: HT-29 (colon adenocarcinoma); test: MTT cell viability assay, HT-29; assay type: cell-based; conditions: Homo sapiens, HT-29, 48 h, 2 days incubation, average ±SD of three experiments
Description: (§2) The effects of triazole derivatives 1–26 on the cell viability were determined by MTT assay, and the IC50 values were determined toward the human tumor cell lines HT-29 (colon adenocarcinoma), A-549 (lung adenocarcinoma), and MCF-7 (breast adenocarcinoma), as well as toward the non-tumor cell line HEK-293 (human embryonic kidney cells).
(§3) In 96-well plates, 3 × 10^3 (A549 and HEK-293) or 5 × 10^3 (HT-29, MCF-7) cells per well were incubated with serial dilutions of the tested compounds in a total volume of 100 μL of their growth media. The 3-(4,5-dimethylthiazol-2-yl)-2,5-diphenyltetrazolium bromide (MTT; Sigma Chemical Co.) dye reduction assay in 96-well microplates was used. After 2 days of incubation (37 °C, 5% CO2 in a humid atmosphere), 10 μL of MTT (5 mg/mL in phosphate-buffered saline, PBS) was added to each well, and the plate was incubated for a further 3 h (37 °C). After that, the supernatant was discarded and replaced by 100 µL of DMSO to dissolve formazan crystals. The absorbance was then read at 550 nm by spectro-photometry. For all concentrations of compound, cell viability was expressed as the percentage of the ratio between the mean absorbance of treated cells and the mean absorbance of untreated cells. Three independent experiments were performed, and the IC50 values (i.e., concentration half inhibiting cell proliferation) were graphically determined by using GraphPad Prism 4 software (2019).

membrane PD-L1 (mPD-L1) = molecular target: T2, membrane PD-L1 (mPD-L1) (Homo sapiens, UniProt Q9NZQ7); test: Membrane PD-L1 relative quantification by flow cytometry; assay type: cell-based; conditions: 24 h, 100 or 10 μM (Table 7), percentage referred to DMSO control
T2 construct: endogenous in cells; host or cells: HT-29, A-549, MCF-7
T2 sequence (Q9NZQ7 19-290): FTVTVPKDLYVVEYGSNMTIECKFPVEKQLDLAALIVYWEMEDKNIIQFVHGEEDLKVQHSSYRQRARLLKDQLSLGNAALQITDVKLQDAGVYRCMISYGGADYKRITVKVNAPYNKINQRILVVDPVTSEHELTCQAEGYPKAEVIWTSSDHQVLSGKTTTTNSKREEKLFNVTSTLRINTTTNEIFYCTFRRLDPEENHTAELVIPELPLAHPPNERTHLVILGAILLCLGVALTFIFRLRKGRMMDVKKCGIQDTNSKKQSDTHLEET
Description: Based on antiproliferative activity of synthetized derivatives, we decided to study the effect of the amino derivatives 14–26 on the expression of both membrane targets PD-L1 and VEGFR-2 (mPD-L1 and mVEGFR-2). The evaluation was performed on three cancer cell lines (HT-29, A-549, and MCF-7) by flow cytometry after 24 h of treatment with the corresponding compounds. Compounds were used at a 100 or 10 μM concentration depending on their IC50 value (see Table 1 in Materials and Methods section). The presence of both targets in the membrane was relatively determined by using DMSO-treated cells as a negative control.
(§4) To study the effect of the compounds on every biological target in cancer cell lines the compounds were used at a 100 or 10 μM dose, depending on their IC50 and the treated cell line.
as §1
To detect membrane PD-L1 and VEGFR-2, after the cell treatments, they were collected, fixed with 4% in PBS paraformaldehyde, and stained with FITC Mouse monoclonal Anti-Human VEGFR-2 (ab184903) and Alexa Fluor® 647 Rabbit monoclonal Anti-PD-L1 (ab215251).

[3] = system: HEK-293 (human embryonic kidney cells); test: MTT cell viability assay, HEK-293; assay type: cell-based; conditions: HEK293, 48 h, 2 days incubation, non-tumor cell line, average ±SD of three experiments
Description: as §2, §3

c-Myc = c-Myc relative quantification by flow cytometry; assay type: cell-based, human; conditions: for c-Myc relative detection, A-549 / c-Myc relative detection, HT-29 / c-Myc relative detection, MCF-7: 24 h, 100 or 10 μM (Table 7), relative to DMSO control
Description: (§5) The study was carried out again on HT-29, A-549, and MCF-7 cell lines by flow cytometry after 24 h of treatment with the corresponding compounds. The presence of the targets in the whole cell were relatively determined by using DMSO-treated cells as a negative control and BMS-8 as a positive one for PD-L1 (Table 3).
as §4, §1
(§6) For the detection of total PD-L1, VEGFR-2, and c-Myc, the procedure was the same as for membrane targets, but after fixation, a treatment with 0,5% in PBS TritonTM X-100 was performed. The antibodies used for PD-L1 and VEGFR-2 were the ones previously described, and for the detection of c-Myc, it was FITC Rabbit monoclonal anti-c-Myc (ab223913).

total PD-L1 (tPD-L1) = molecular target: T3, total PD-L1 (tPD-L1) (Homo sapiens, UniProt Q9NZQ7); test: Total PD-L1 relative quantification by flow cytometry; assay type: cell-based; conditions: for tPD-L1 relative detection, A-549 / tPD-L1 relative detection, HT-29 / tPD-L1 relative detection, MCF-7: 24 h, 100 or 10 μM (Table 7), relative to DMSO control
T3 construct: endogenous in cells; host or cells: HT-29, A-549, MCF-7
T3 sequence (Q9NZQ7 19-290): as above
Description: as §5, §4, §1, §6

[4] = system: MCF-7 (breast adenocarcinoma); test: MTT cell viability assay, MCF-7; assay type: cell-based; conditions: Homo sapiens, MCF7, 48 h, 2 days incubation, average ±SD of three experiments
Description: as §2, §3

[5] = system: A-549 (lung adenocarcinoma); test: MTT cell viability assay, A-549; assay type: cell-based; conditions: Homo sapiens, A549, 48 h, 2 days incubation, average ±SD of three experiments
Description: as §2, §3

[6] = HT-29, compared to non-treated cells

Row | SMILES | melting point | mVEGFR-2 relative detection, A-549 [1] | mVEGFR-2 relative detection, HT-29 [1] | mVEGFR-2 relative detection, MCF-7 [1] | IC50 [2] | mPD-L1 relative detection, A-549 (membrane PD-L1 (mPD-L1)) | mPD-L1 relative detection, HT-29 (membrane PD-L1 (mPD-L1)) | mPD-L1 relative detection, MCF-7 (membrane PD-L1 (mPD-L1)) | IC50 [3] | c-Myc relative detection, A-549 (c-Myc; A-549) | c-Myc relative detection, HT-29 (c-Myc; HT-29) | c-Myc relative detection, MCF-7 (c-Myc; MCF-7) | tPD-L1 relative detection, A-549 (total PD-L1 (tPD-L1)) | tPD-L1 relative detection, HT-29 (total PD-L1 (tPD-L1); HT-29) | tPD-L1 relative detection, MCF-7 (total PD-L1 (tPD-L1)) | IC50 [4] | IC50 [5] | other results
1 | Nc1ccc(-c2cn(Cc3cccc(Br)c3)nn2)cc1 [Compound 25, 4-(1-(3-bromobenzyl)-1H-1,2,3-triazol-4-yl)aniline] | 134 to 135 °C | >100% | >100% | >100% | 8.5 µM | >100% | 87 ± 17% | 87 ± 17% | 4 ± 3 µM | >100% | >100% | 56 ± 10% | 76 ± 1% | 48 ± 7% | >100% | 8 ± 4 µM | – | –
2 | Cc1cccc(Cn2cc(-c3ccc(N)cc3)nn2)c1 [Compound 16, 4-(1-(3-methylbenzyl)-1H-1,2,3-triazol-4-yl)aniline] | 128 to 129 °C | >100% | 93 ± 1% | >100% | 9 ± 6 µM | 86 ± 17% | 66 ± 21% | >100% | 63 ± 34 µM | >100% | >100% | 78 ± 7% | >100% | >100% | >100% | 2.1 µM | 0.7 µM | –
3 | Cc1ccc(Cn2cc(-c3ccc(N)cc3)nn2)cc1 [Compound 17, 4-(1-(4-methylbenzyl)-1H-1,2,3-triazol-4-yl)aniline] | 130 to 132 °C | >100% | 81 ± 1% | >100% | 8 ± 2 µM | 88 ± 21% | 87 ± 14% | 89 ± 5% | 4 ± 2 µM | >100% | >100% | 63 ± 2% | 56 ± 19% | >100% | >100% | 4 ± 1 µM | 1.7 µM | Inhibition of total PD-L1, A-549 (total PD-L1 (tPD-L1); compared to non-treated cells): ~50%
4 | COc1ccc(Cn2cc(-c3ccc(N)cc3)nn2)cc1 [Compound 20, 4-(1-(4-methoxybenzyl)-1H-1,2,3-triazol-4-yl)aniline] | 132 to 134 °C | >100% | 92 ± 14% | >100% | > 100 µM | 95 ± 8% | >100% | 91 ± 9% | > 100 µM | 69 ± 9% | 74 ± 23% | 62 ± 7% | 54 ± 6% | 67 ± 3% | >100% | 6 ± 4 µM | > 100 µM | Inhibition of c-Myc, A-549 (c-Myc; A-549, compared to non-treated cells): around 30%; Inhibition of c-Myc, HT-29 (c-Myc; [6]): around 30%; Inhibition of c-Myc, MCF-7 (c-Myc; MCF-7): around 30%; Inhibition of total PD-L1, A-549 (total PD-L1 (tPD-L1); compared to non-treated cells): ~50%; Inhibition/downregulation of total PD-L1, HT-29 (total PD-L1 (tPD-L1); [6]): around 35%
5 | COc1cccc(Cn2cc(-c3ccc(N)cc3)nn2)c1 [Compound 19, 4-(1-(3-methoxybenzyl)-1H-1,2,3-triazol-4-yl)aniline] | 103 to 105 °C | >100% | 94 ± 1% | >100% | > 100 µM | >100% | >100% | 96 ± 5% | > 100 µM | >100% | >100% | 55 ± 5% | >100% | 85 ± 17% | >100% | 12 ± 5 µM | > 100 µM | –
6 | Brc1ccc(Cn2cc(-c3ccccc3)nn2)cc1 [Compound 13, 1-(4-bromobenzyl)-4-phenyl-1H-1,2,3-triazole] | 153 to 155 °C | – | – | – | – | – | – | – | – | – | – | – | – | – | – | – | – | –
7 | Cc1ccccc1Cn1cc(-c2ccc(N)cc2)nn1 [Compound 15, 4-(1-(2-methylbenzyl)-1H-1,2,3-triazol-4-yl)aniline] | 131 to 133 °C | >100% | 87 ± 1% | >100% | 7 ± 1 µM | 90 ± 6% | 74 ± 13% | 84 ± 11% | > 100 µM | >100% | >100% | >100% | >100% | >100% | >100% | 4 ± 1 µM | 4 ± 3 µM | –
8 | Brc1ccccc1Cn1cc(-c2ccccc2)nn1 [Compound 11, 1-(2-bromobenzyl)-4-phenyl-1H-1,2,3-triazole] | 100 to 103 °C | – | – | – | – | – | – | – | – | – | – | – | – | – | – | – | – | –
9 | Brc1cccc(Cn2cc(-c3ccccc3)nn2)c1 [Compound 12, 1-(3-bromobenzyl)-4-phenyl-1H-1,2,3-triazole] | 96 to 99 °C | – | – | – | – | – | – | – | – | – | – | – | – | – | – | – | – | –
10 | Clc1cccc(Cn2cc(-c3ccccc3)nn2)c1 [Compound 9, 1-(3-chlorobenzyl)-4-phenyl-1H-1,2,3-triazole] | 108 to 110 °C | – | – | – | – | – | – | – | – | – | – | – | – | – | – | – | – | –
11 | Clc1ccccc1Cn1cc(-c2ccccc2)nn1 [Compound 8, 1-(2-chlorobenzyl)-4-phenyl-1H-1,2,3-triazole] | 86 to 88 °C | – | – | – | – | – | – | – | – | – | – | – | – | – | – | – | – | –
12 | CNC(=O)c1cc(Oc2ccc(NC(=O)Nc3ccc(Cl)c(C(F)(F)F)c3)cc2)ccn1 [Sorafenib, sorafenib, reference compound] | – | – | – | – | 17 ± 4 µM | – | – | – | 5 µM | – | – | – | – | – | – | 14 ± 4 µM | 27 ± 2 µM | –
13 | Clc1ccc(Cn2cc(-c3ccccc3)nn2)cc1 [Compound 10, 1-(4-chlorobenzyl)-4-phenyl-1H-1,2,3-triazole] | 141 to 144 °C | – | – | – | – | – | – | – | – | – | – | – | – | – | – | – | – | –
